According to article PMC4703981, “Autophosphorylation at Thr279 of Entamoeba histolytica atypical kinase EhAK1 is required for activity and regulation of erythrophagocytosis” (Scientific Reports, 2016):

Target: T1, EhAK1 (Entamoeba histolytica, UniProt C4M9G9)
T1 construct: gene EHI_105830
Conditions: maximal quench on ATP titration, no affinity constant

T1 sequence (C4M9G9 entry or part of it): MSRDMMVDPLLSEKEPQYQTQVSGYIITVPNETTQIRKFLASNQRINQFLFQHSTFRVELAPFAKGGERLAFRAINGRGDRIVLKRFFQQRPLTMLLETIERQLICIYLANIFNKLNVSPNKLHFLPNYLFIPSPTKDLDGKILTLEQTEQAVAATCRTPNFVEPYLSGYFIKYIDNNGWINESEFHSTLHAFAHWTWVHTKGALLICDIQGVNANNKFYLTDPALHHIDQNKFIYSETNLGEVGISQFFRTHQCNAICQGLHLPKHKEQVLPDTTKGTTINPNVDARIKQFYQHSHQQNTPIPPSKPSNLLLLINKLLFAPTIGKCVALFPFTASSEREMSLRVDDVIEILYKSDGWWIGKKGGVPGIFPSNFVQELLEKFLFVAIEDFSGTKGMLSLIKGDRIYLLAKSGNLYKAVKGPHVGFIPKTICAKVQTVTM

`Nc1ncnc2c1ncn2[C@@H]1O[C@H](COP(=O)(O)OP(=O)(O)OP(=O)(O)O)[C@@H](O)[C@H]1O` [ATP] was tested, and the “% decrease in Trp fluorescence” value was 76%.
